One data set deals with T1, human BACE (Homo sapiens, UniProt P56817).
T1 construct: Recombinant BACE (extracellular domain, expressed in baculovirus and purified using standard methods); made in house
Put plainly: Test 1: Inhibition of Human BACE. It counts as biochemical. Particulars: test not named; sentence follows 'at least one of the above-indicated tests'; assigned to BACE Test 1. How it is done: Test 1: Inhibition of Human BACE
Recombinant BACE (extracellular domain, expressed in baculovirus and purified using standard methods) at 6 nM concentration is incubated with the test compound at various concentrations for 1 hour at room temperature in 100 mM acetate buffer, pH 4.5, containing 0.1% CHAPS. Synthetic peptide substrate Mca-Ser-Glu-Val-Asn-Leu-Asp-Ala-Glu-Phe-Lys(DNP) (SEQ ID NO: 1) is added to a final concentration of 3 μM and the increase in fluorescence is recorded at excitation of 325 nm and emission at 400 nm in a microplate spectro-fluorimeter for 20 minutes in 1-minute intervals. IC50 values are calculated from percentage of inhibition of BACE-activity as a function of the test compound concentration.

T1 sequence (P56817 46-457 limits assumed): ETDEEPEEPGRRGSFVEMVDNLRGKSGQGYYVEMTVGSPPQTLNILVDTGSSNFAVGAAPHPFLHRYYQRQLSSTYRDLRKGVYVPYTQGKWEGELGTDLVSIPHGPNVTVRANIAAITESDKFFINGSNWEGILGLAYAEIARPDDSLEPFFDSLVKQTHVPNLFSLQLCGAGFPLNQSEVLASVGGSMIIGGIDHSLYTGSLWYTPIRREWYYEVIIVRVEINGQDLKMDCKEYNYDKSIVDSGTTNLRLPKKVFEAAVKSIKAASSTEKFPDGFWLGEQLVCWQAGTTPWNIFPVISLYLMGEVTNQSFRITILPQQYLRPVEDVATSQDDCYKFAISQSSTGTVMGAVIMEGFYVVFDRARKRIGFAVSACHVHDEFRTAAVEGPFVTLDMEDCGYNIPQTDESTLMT

For the compound `CC(C)c1cccc(CNC[C@@H](O)[C@@H]2Cc3cccc(c3)OCCCCCC(=O)N(C)[C@@H](C)C(=O)N2)c1` [Example 1, (10S,13S)-13-[(R)-1-Hydroxy-2-(3-isopropyl-benzylamino)-ethyl]-9,10-dimethyl-2-oxa-9,12-diaza-bicyclo[13.3.1]nonadeca-1(19),15,17-triene-8,11-dione], the melting point is 132 to 135 °C.

For the compound `CC(C)c1cccc(CNC[C@@H](O)[C@@H]2Cc3cccc(c3)CCCCCCC(=O)N(C)[C@@H](C)C(=O)N2)c1` [Example 4, (3S,6S)-3-[(R)-1-Hydroxy-2-(3-isopropyl-benzylamino)-ethyl]-6,7-dimethyl-4,7-diaza-bicyclo[13.3.1]nonadeca-1(18),15(19),16-triene-5,8-dione], at human BACE, the IC50 came to 250 nM.

The compound `CC(C)c1cccc(CNC[C@@H](O)[C@@H]2Cc3cccc(c3)OCCCCS(=O)(=O)C[C@@H](C)C(=O)N2)c1` [Example 6, (9S,12S)-12-[(R)-1-Hydroxy-2-(3-isopropyl-benzylamino)-ethyl]-9-methyl-7,7-dioxo-2-oxa-7lambda*6*-thia-11-aza-bicyclo[12.3.1]octadeca-1(18),14,16-trien-10-one] came in with a melting point of 148 to 150 °C.
